According to PubChem BioAssay AID1919013 (Molecular Pharmacology Branch, DTP, NCI, 2023):

System: LG0703-F498-PDC complex spheroid growth
Test: Anticancer human tumor LG0703-F498-PDC patient-derived lung adenocarcinoma cell line growth inhibition [AhR]
Details: for IC50: curve of first compound; for viability, T/C: stronger effect = lower value; active = viability on the fitted dose curve at most 10% of control; inactive = the rest
Method in brief: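 Complex tumor spheroids co-cultured with HUVEC and human MSC stroma; AhR antagonists tested in combination with standard-of-care and investigational agents. Top concentration at or near clinical Cmax (else 10 microM), half-log dilutions; growth expressed as percent test/control.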
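Also: luminescence taken as a proxy for viable cell amount.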
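For viability, T/C in this document: percent of DMSO vehicle control where 100% means growth equal to vehicle.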

Cn1ncnc1C1c2n[nH]c(=O)c3cc(F)cc(c23)NC1c1ccc(F)cc1 (stereo not given) + Cc1cncc(-c2nc(NCCc3c[nH]c4ccccc34)c3ncn(C(C)C)c3n2)c1
inactive: viability, T/C (second compound 0.1 µM, first compound 0.000316 µM) 101% | viability, T/C (second compound 0.1 µM, first compound 0.001 µM) 93.3% | viability, T/C (second compound 0.1 µM, first compound 0.00316 µM) 93.2% | viability, T/C (second compound 0.1 µM, first compound 0.01 µM) 93.8% | viability, T/C (second compound 0.1 µM, first compound 0.0316 µM) 91.3% | viability, T/C (second compound 0.1 µM, first compound 0.1 µM) 82.6% | viability, T/C (second compound 0.316 µM, first compound 0.000316 µM) 94.6% | viability, T/C (second compound 0.316 µM, first compound 0.001 µM) 108% | viability, T/C (second compound 0.316 µM, first compound 0.00316 µM) 98.4% | viability, T/C (second compound 0.316 µM, first compound 0.01 µM) 98.5% | viability, T/C (second compound 0.316 µM, first compound 0.0316 µM) 104% | viability, T/C (second compound 0.316 µM, first compound 0.1 µM) 89.1% | viability, T/C (second compound 1 µM, first compound 0.000316 µM) 103% | viability, T/C (second compound 1 µM, first compound 0.001 µM) 116% | viability, T/C (second compound 1 µM, first compound 0.00316 µM) 100% | viability, T/C (second compound 1 µM, first compound 0.01 µM) 106% | viability, T/C (second compound 1 µM, first compound 0.0316 µM) 109% | viability, T/C (second compound 1 µM, first compound 0.1 µM) 95.7% | viability, T/C (second compound 3.16 µM, first compound 0.000316 µM) 49.3% | viability, T/C (second compound 3.16 µM, first compound 0.001 µM) 47% | viability, T/C (second compound 3.16 µM, first compound 0.00316 µM) 58.2% | viability, T/C (second compound 3.16 µM, first compound 0.01 µM) 42.4% | viability, T/C (second compound 3.16 µM, first compound 0.0316 µM) 48% | viability, T/C (second compound 3.16 µM, first compound 0.1 µM) 54%
< 0.316 nM: IC50 (second compound 3.16 µM) | IC50 (second compound 10 µM)
active: viability, T/C (second compound 10 µM, first compound 0.000316 µM) 1.14% | viability, T/C (second compound 10 µM, first compound 0.001 µM) 1.01% | viability, T/C (second compound 10 µM, first compound 0.00316 µM) 1.11% | viability, T/C (second compound 10 µM, first compound 0.01 µM) 1.03% | viability, T/C (second compound 10 µM, first compound 0.0316 µM) 1.15% | viability, T/C (second compound 10 µM, first compound 0.1 µM) 1.54%
> 100 nM: IC50 (second compound 0.1 µM) | IC50 (second compound 0.316 µM) | IC50 (second compound 1 µM)
